Data: patent US10844044B2 (Vanderbilt University, priority 2018, dated 2020)

Key:
WDR5 = WDR5 (Homo sapiens (Human), UniProt P61964); assay: TR-FRET binding assay (displacement of 10mer-Thr-FAM probe from WDR5); details: read-out: Ki for Inhibition of WDR5 by TR-FRET assay; TR-FRET, 10mer-Thr-FAM probe, WDR5-His tag 2 nM, pH 7.0
[1] = system: MV4:11 human cancer cell lines; assay: Anti-proliferative activity, CellTiter-Glo viability assay, 7 day protocol; assay type: cell-based; details: Homo sapiens, MV4-11, 168 h, MV4:11 cells, 7 day incubation, read-out: GI50 on cellular proliferation of MV4:11 human cancer cell lines
Experimental: Viability assays are performed by dispensing […] into each well of an opaque 384-well plate and adding compounds at the indicated concentrations in a final volume of 32 μL and a final concentration of DMSO of 0.1% for all samples. After a set incubation period, 7 day protocol, the viability of cells in each well is assessed using the CellTiter-Glo assay (Promega), read on a GloMax 96 Microplane Luminometer (Promega). Serial dilutions of each cell type are included in all assays to generate standard curves and determine assay measurements are taken within the dynamic range of the instrument. GI50 values are calculated based on three biological replicates, each with three technical replicates. Data are expressed as mean plus/minus S.E.M.

SMILES	Ki (WDR5) [nM]	GI50 [1] [nM]
COc1ccnc(CNC(=O)c2cc(Cn3ccn(C)c3=N)cc(-c3cc(C)ccc3OC)c2)c1 [Example 10, 5-((2-Imino-3-methyl-2,3-dihydro-1H-imidazol-1-yl)methyl)-2′-m ethoxy-N-((4-methoxypyridin-2-yl)methyl)-5′-methyl-[1,1′-biphenyl]-3-carboxamide]	1.5	2300
Cc1cnccc1-c1cc(Cn2ccn(C)c2=N)cc(C(=O)NCc2ccc(Cl)c(Cl)c2)c1 [Example 25, N-(3,4-dichlorobenzyl)-3-((2-imino-3-methyl-2,3-dihydro-1H-imidazol-1-yl)methyl)-5-(3-methylpyridin-4-yl)benzamide]	1.3	6100
Cc1ccc2[nH]ncc2c1-c1cc(Cn2ccn(C)c2=N)cc(C(=O)NCc2ccc(Cl)c(Cl)c2)c1 [Example 27, N-(3,4-Dichlorobenzyl)-3-((2-imino-3-methyl-2,3-dihydro-1H-imidazol-1-yl)methyl)-5-(5-methyl-1H-indazol-4-yl)benzamide]	1.5	3100
Cc1cc(F)cc(F)c1-c1cc(Cn2ccn(C)c2=N)cc(C(=O)NCc2ccc(Cl)c(Cl)c2)c1 [Example 28, N-(3,4-Dichlorobenzyl)-2′,4′-difluoro-5-((2-imino-3-methyl-2,3-dihydro-1H-imidazo-1-yl)methyl)-6′-methyl-[1,1′-biphenyl]-3-carboxamide]	0.35	1300
Cc1cc(CNC(=O)c2cc(Cn3ccn(C)c3=N)cc(-c3c(C)ccc4[nH]ncc34)c2)ccc1Cl [Example 33, N-(4-Chloro-3-methylbenzyl)-3-((2-imino-3-methyl-2,3-dihydro-1H-imidazol-1-yl)methyl)-5-(5-methyl-1H-indazol-4-yl)benzamide]	0.99	4900
COc1cc(CN(C)C(=O)c2cc(Cn3ccn(C)c3=N)cc(-c3c(C)ccc4[nH]ncc34)c2)cc(OC)c1 [Example 34, N-(3,5-Dimethoxybenzyl)-3-((2-imino-3-methyl-2,3-dihydro-1H-imidazol-1-yl)methyl)-N-methyl-5-(5-methyl-1H-indazol-4-yl)benzamide]	16	30000
COc1cc(CNC(=O)c2cc(Cn3ccn(C)c3=N)cc(-c3c(C)ccc4[nH]ncc34)c2)cc(OC)c1 [Example 35, N-(3,5-Dimethoxybenzyl)-3-((2-imino-3-methyl-2,3-dihydro-1H-imidazol-1-yl)methyl)-5-(5-methyl-1H-indazol-4-yl)benzamide]	1.3	9000
Cc1ccnc(C(NC(=O)c2cc(Cn3ccn(C)c3=N)cc(-c3cccnc3C)c2)C2CC2)c1 (stereo not shown) [Example 37, N-(Cyclopropyl(4-methylpyridin-2-yl)methyl)-3-((2-imino-3-methyl-2,3-dihydro-1H-imidazol-1-yl)methyl)-5-(2-methylpyridin-3-yl)benzamide]	0.4	3800
Cc1cc(CNC(=O)c2cc(Cn3ccn(C)c3=N)cc(-c3cccnc3C)c2)ncn1 [Example 38, 3-((2-Imino-3-methyl-2,3-dihydro-1H-imidazol-1-yl)methyl)-5-(2-methylpyridin-3-yl)-N-((6-methylpyrimidin-4-yl)methyl)benzamide]	3.7	6000
Cc1ncccc1-c1cc(Cn2ccn(C)c2=N)cc(C(=O)NC(C2CC2)C2CC2)c1 [Example 39, N-(Dicyclopropylmethyl)-3-((2-imino-3-methyl-2,3-dihydro-1H-imidazol-1-yl)methyl)-5-(2-methylpyridin-3-yl)benzamide]	17	30000
Cc1cc(C)nc(CNC(=O)c2cc(Cn3ccn(C)c3=N)cc(-c3cccnc3C)c2)n1 [Example 42, N-((4,6-Dimethylpyrimidin-2-yl)methyl)-3-((2-imino-3-methyl-2,3-dihydro-1H-imidazol-1-yl)methyl)-5-(2-methylpyridin-3-yl)benzamide]	10	28000
